Measured values published in ChEMBL document CHEMBL3885881, “DrugMatrix”.

Organism: Rattus norvegicus
Experiment: DrugMatrix - Regimen: Daily Repeat
Type: toxicity, organism-based, Sprague-Dawley
Parameters: regimen Daily Repeat, gender Male, age 6-8 weeks
Conditions: in vivo, po, route oral GAVAGE, […]; for ABSOLUTE BASOPHIL / ABSOLUTE EOSINOPHIL / BASOPHIL / NUCLEATED RED BLOOD CELLS / EOSINOPHIL / ABSOLUTE MONOCYTE / ABSOLUTE SEGMENTED NEUTROPHIL / ERYTHROCYTE COUNT / HEMATOCRIT / HEMOGLOBIN / LEUKOCYTE COUNT / LYMPHOCYTE / MEAN CORPUSCULAR HEMOGLOBIN / MEAN CORPUSCULAR HEMOGLOBIN CONCENTRATION / MEAN CORPUSCULAR VOLUME / MONOCYTE / NEUTROPHIL / PLATELET COUNT: tissue Blood
[1] = 0 mg/kg, 72 h, dose level Control, time 3 day
[2] = 0 mg/kg, 72 h, tissue Plasma, dose level Control, time 3 day
[3] = 0 mg/kg, 120 h, dose level Control, time 5 day
[4] = 100 mg/kg, 72 h, dose level Low, time 3 day
[5] = 100 mg/kg, 72 h, tissue Plasma, dose level Low, time 3 day
[6] = 100 mg/kg, 120 h, dose level Low, time 5 day
[7] = 100 mg/kg, 120 h, tissue Plasma, dose level Low, time 5 day

SMILES: COc1cc([C@@H]2c3cc4c(cc3[C@@H](O[C@@H]3O[C@@H]5CO[C@@H](C)O[C@H]5[C@H](O)[C@H]3O)[C@H]3COC(=O)[C@H]23)OCO4)cc(OC)c1O [ETOPOSIDE]
- ABSOLUTE BASOPHIL [1]: 0 CELLS/uL
- ABSOLUTE EOSINOPHIL [1]: 52.33 CELLS/uL
- BASOPHIL [1]: 0%
- NUCLEATED RED BLOOD CELLS [1]: 0 /100WBC
- CREATININE [2]: 0.33 mg/dL
- POTASSIUM [2]: 5.37 MEQ/L
- TOTAL BILIRUBIN [2]: 0.2 mg/dL
- ABSOLUTE BASOPHIL [3]: 0 CELLS/uL
- ABSOLUTE EOSINOPHIL [3]: 0 CELLS/uL
- BASOPHIL [3]: 0%
- EOSINOPHIL [3]: 0%
- TOTAL BILIRUBIN (0 mg/kg, 120 h, tissue Plasma, dose level Control, time 5 day): 0.37 mg/dL
- ABSOLUTE BASOPHIL [4]: 0 CELLS/uL
- ABSOLUTE EOSINOPHIL [4]: 0 CELLS/uL
- ABSOLUTE MONOCYTE [4]: 20.33 CELLS/uL
- ABSOLUTE SEGMENTED NEUTROPHIL [4]: 390.33 CELLS/uL
- BASOPHIL [4]: 0%
- EOSINOPHIL [4]: 0%
- ERYTHROCYTE COUNT [4]: 4.86 x10E6/uL
- HEMATOCRIT [4]: 29.9%
- HEMOGLOBIN [4]: 12.13 G/DL
- LEUKOCYTE COUNT [4]: 5.67 x10E3/uL
- LYMPHOCYTE [4]: 90%
- MEAN CORPUSCULAR HEMOGLOBIN [4]: 24.93 pg
- MEAN CORPUSCULAR HEMOGLOBIN CONCENTRATION [4]: 40.57 G/DL
- MEAN CORPUSCULAR VOLUME [4]: 61.53 fL
- MONOCYTE [4]: 0.33%
- NEUTROPHIL [4]: 9.67%
- NUCLEATED RED BLOOD CELLS [4]: 0 /100WBC
- PLATELET COUNT [4]: 1214.33 x10E3/uL
- ALANINE AMINOTRANSFERASE [5]: 36.67 u/L
- ALBUMIN [5]: 3.7 G/DL
- ASPARTATE AMINOTRANSFERASE [5]: 67.67 u/L
- BLOOD UREA NITROGEN [5]: 7.67 mg/dL
- CARBON DIOXIDE [5]: 27 mmol/L
- CHLORIDE [5]: 102.67 MEQ/L
- CHOLESTEROL [5]: 92 mg/dL
- CREATINE PHOSPHOKINASE [5]: 255.67 u/L
- CREATININE [5]: 0.23 mg/dL
- GLUCOSE [5]: 185 mg/dL
- LACTATE DEHYDROGENASE [5]: 162.33 u/L
- PHOSPHORUS [5]: 11 mg/dL
- POTASSIUM [5]: 4.69 MEQ/L
- SODIUM [5]: 145 MEQ/L
- TOTAL BILIRUBIN [5]: 0.1 mg/dL
- TOTAL PROTEIN [5]: 5.5 G/DL
- URIC ACID [5]: 0.8 mg/dL
- ABSOLUTE BASOPHIL [6]: 0 CELLS/uL
- ABSOLUTE EOSINOPHIL [6]: 0 CELLS/uL
- ABSOLUTE MONOCYTE [6]: 12 CELLS/uL
- ABSOLUTE SEGMENTED NEUTROPHIL [6]: 593.67 CELLS/uL
- BASOPHIL [6]: 0%
- EOSINOPHIL [6]: 0%
- ERYTHROCYTE COUNT [6]: 4.82 x10E6/uL
- HEMATOCRIT [6]: 30.6%
- HEMOGLOBIN [6]: 12.2 G/DL
- LEUKOCYTE COUNT [6]: 4.43 x10E3/uL
- LYMPHOCYTE [6]: 86%
- MEAN CORPUSCULAR HEMOGLOBIN [6]: 25.37 pg
- MEAN CORPUSCULAR HEMOGLOBIN CONCENTRATION [6]: 39.9 G/DL
- MEAN CORPUSCULAR VOLUME [6]: 63.67 fL
- MONOCYTE [6]: 0.33%
- NEUTROPHIL [6]: 13.67%
- NUCLEATED RED BLOOD CELLS [6]: 0 /100WBC
- PLATELET COUNT [6]: 1205.67 x10E3/uL
- ALANINE AMINOTRANSFERASE [7]: 53.33 u/L
- ALBUMIN [7]: 3.97 G/DL
- ASPARTATE AMINOTRANSFERASE [7]: 81 u/L
- BLOOD UREA NITROGEN [7]: 8.33 mg/dL
- CHLORIDE [7]: 104.33 MEQ/L
- CHOLESTEROL [7]: 87.67 mg/dL
- CREATINE PHOSPHOKINASE [7]: 278.33 u/L
- CREATININE [7]: 0.3 mg/dL
- GLUCOSE [7]: 157 mg/dL
- LACTATE DEHYDROGENASE [7]: 65.67 u/L
- LIPASE [7]: 8.67 u/L
